This note sets out measurements from ChEMBL document CHEMBL2407045, “Discovery and gram-scale synthesis of BMS-593214, a potent, selective FVIIa inhibitor” (Bioorg Med Chem Lett, 2013).

Bounds are passed on as bounds.

The species entered for series [1] is Oryctolagus cuniculus. Briefly: Antithrombotic activity in rabbit electric current arterial thrombosis model. The class given is functional, organism-based.
The species named for series [2] is Oryctolagus cuniculus. Briefly: Toxicity in rabbit assessed as prolongation of cuticle bleeding time. The class given is organism-based. The following applies: in vivo.
The next series addresses T1, Coagulation factor VII (Homo sapiens, UniProt P08709).
T1 sequence (P08709 whole entry): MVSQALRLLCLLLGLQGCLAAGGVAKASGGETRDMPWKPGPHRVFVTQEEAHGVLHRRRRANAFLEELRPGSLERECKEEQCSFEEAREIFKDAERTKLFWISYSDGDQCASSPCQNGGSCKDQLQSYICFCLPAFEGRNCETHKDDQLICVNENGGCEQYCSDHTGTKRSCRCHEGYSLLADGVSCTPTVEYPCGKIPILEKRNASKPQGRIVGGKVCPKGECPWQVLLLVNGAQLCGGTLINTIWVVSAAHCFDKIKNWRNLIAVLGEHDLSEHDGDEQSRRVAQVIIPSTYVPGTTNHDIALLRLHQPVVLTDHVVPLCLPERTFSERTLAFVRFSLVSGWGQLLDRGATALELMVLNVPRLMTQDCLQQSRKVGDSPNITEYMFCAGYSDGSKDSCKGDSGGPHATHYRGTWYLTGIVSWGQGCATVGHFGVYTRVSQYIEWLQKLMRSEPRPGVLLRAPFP
Briefly: Inhibition of recombinant human coagulation factor 7A.

A further series addresses Prothrombin (Homo sapiens, UniProt P00734). The series can be described thus: Inhibition of purified human thrombin.
A further series addresses Trypsin (Homo sapiens, UniProt P07477+P07478+P35030). Briefly: Inhibition of purified human trypsin. Type of series: protein assay.
Another series addresses Coagulation factor X (Homo sapiens, UniProt P00742). The series can be described thus: Inhibition of purified human coagulation factor 10a.
Series [3] is described as follows: Anticoagulant activity in plasma (unknown origin) assessed as concentration required to double prothrombin time. Type of series: functional.

Chain of Coagulation factor X (P00742 41-179 limits assumed): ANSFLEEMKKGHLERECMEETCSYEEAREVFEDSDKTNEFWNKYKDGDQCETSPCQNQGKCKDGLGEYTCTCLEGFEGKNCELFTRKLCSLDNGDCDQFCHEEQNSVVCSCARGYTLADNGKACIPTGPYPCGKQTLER
Chain of Coagulation factor X (P00742 235-488 limits assumed): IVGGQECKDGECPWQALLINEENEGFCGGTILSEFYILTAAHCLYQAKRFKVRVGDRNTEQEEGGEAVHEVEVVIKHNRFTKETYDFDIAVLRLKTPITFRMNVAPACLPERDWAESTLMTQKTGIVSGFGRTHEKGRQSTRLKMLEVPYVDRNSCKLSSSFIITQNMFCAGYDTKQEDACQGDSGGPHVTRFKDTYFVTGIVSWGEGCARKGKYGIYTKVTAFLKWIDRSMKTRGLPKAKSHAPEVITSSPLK

In the series filed under Oryctolagus cuniculus [1], `COc1cc([C@@H]2Nc3ccc(C(=N)N)cc3[C@H]3c4ccccc4C[C@H]32)c(-c2ccc(C(=O)O)cc2)cc1O` came in with a half-maximal effective concentration (EC50) of 570 nM. In addition, in the series filed under Oryctolagus cuniculus [2], the Activity entry is listed as “Non-toxic”.
With `C[C@]1(c2ccccc2)C[C@H](c2ccc(O)cc2)Nc2ccc(C(=N)N)cc21`, the Ki at Coagulation factor VII is 8800 nM.
Still for that read-out and setting: for `COc1cc([C@H]2C[C@H](c3ccccc3)c3cc(C(=N)N)ccc3N2)ccc1O` the value was 1800 nM.
As for `COc1cc([C@@H]2Nc3ccc(C(=N)N)cc3[C@H]3c4ccccc4C[C@H]32)ccc1O` (racemic), the Ki at Prothrombin is 300 nM; at Trypsin, 300 nM; on Coagulation factor VII, 160 nM; at Coagulation factor X, greater than 500 nM.
For `COc1cc([C@@H]2Nc3ccc(C(=N)N)cc3[C@H]3c4ccccc4C[C@H]32)c(-c2ccccc2C(=O)O)cc1O` (racemic), the Ki at Prothrombin is 35 nM; on Trypsin, 7.5 nM; on Coagulation factor VII, 0.62 nM; on Coagulation factor X it was 16 nM.
Turning to `COc1cc([C@@H]2Nc3ccc(C(=N)N)cc3[C@H]3c4ccccc4C[C@H]32)c(-c2cccc(C(=O)O)c2)cc1O` (racemic), the Ki on Prothrombin is 330 nM; at Trypsin, 6900 nM; at Coagulation factor VII it was 8.1 nM; at Coagulation factor X, 1500 nM.
With `COc1cc([C@@H]2Nc3ccc(C(=N)N)cc3[C@H]3c4ccccc4C[C@H]32)c(-c2ccc(C(=O)O)cc2)cc1O` (racemic), the inhibitory constant (Ki) at Prothrombin is 1800 nM; at Trypsin it was greater than 8000 nM; on Coagulation factor VII, 1.9 nM; at Coagulation factor X, 1300 nM. For the same compound, the 2PT in series [3] was 16 µM.
